Test results from paper PMC8286840, “Identifying SARS-CoV-2 antiviral compounds by screening for small molecule inhibitors of Nsp3 papain-like protease” (Biochemical Journal, 2021).
Structures can show the parent of a compound that is named as a salt. Where two headings read alike, the source gives them in different places.

Key:
[1] = molecular target: T1, SARS-CoV-2 PLpro (nsp3 1564–1878) (Severe acute respiratory syndrome coronavirus 2, UniProt P0DTD1); test: biochemical; design: FRET-quenched peptide (Pro3) cleavage by PLpro, 10 min pre-incubation, slope over 20 min, normalised to no-compound control; conditions: high concentration screen, read-out: % of control remaining
[2] = molecular target: T1, SARS-CoV-2 PLpro (nsp3 1564–1878); test: biochemical; design: FRET-quenched peptide (Pro3) cleavage by PLpro, 10 min pre-incubation, slope over 20 min, normalised to no-compound control; conditions: low concentration screen, read-out: % of control remaining

Cc1cc(=O)[nH]c(=S)[nH]1 [Methylthiouracil]
remaining activity at 3.75 µM ([1]; Well no.=4973): 98.5%
remaining activity at 3.75 µM ([1]; Well no.=6148): 102%
remaining activity at 1.25 µM ([2]; Well no.=4973): 99.9%
remaining activity at 1.25 µM ([2]; Well no.=6148): 98.5%

CC[C@@H](CO)NC(=O)[C@@H]1C=C2c3cccc4c3c(cn4C)C[C@H]2N(C)C1 [Methysergide maleate]
remaining activity at 3.75 µM ([1]; Well no.=2284): 90.3%
remaining activity at 1.25 µM ([2]; Well no.=1087): 94.2%
remaining activity at 1.25 µM ([2]; Well no.=2284): 94.8%

COC1=CC(=O)O[C@@H](/C=C/c2ccc3c(c2)OCO3)C1 [Methysticin]
remaining activity at 3.75 µM ([1]; Well no.=3565): 108%
remaining activity at 1.25 µM ([2]; Well no.=3565): 105%

CCN(CC)CCNC(=O)c1cc(Cl)c(N)cc1OC [Metoclopramide (hydrochloride hydrate)]
remaining activity at 3.75 µM ([1]; Well no.=7435): 109%
remaining activity at 1.25 µM ([2]; Well no.=7435): 106%

CCN(CC)CCNC(=O)c1cc(Cl)c(N)cc1OC [Metoclopramide hydrochloride]
remaining activity at 3.75 µM ([1]; Well no.=966): 103%
remaining activity at 1.25 µM ([2]; Well no.=966): 100%

CCN(CC)CCNC(=O)c1cc(Cl)c(N)cc1OC [Metoclopramide]
remaining activity at 3.75 µM ([1]; Well no.=1696): 102%
remaining activity at 3.75 µM ([1]; Well no.=6425): 95%
remaining activity at 1.25 µM ([2]; Well no.=1696): 101%
remaining activity at 1.25 µM ([2]; Well no.=6425): 99.2%

Cc1ccccc1N1C(=O)c2cc(S(N)(=O)=O)c(Cl)cc2NC1C (stereo not drawn) [Metolazone]
remaining activity at 3.75 µM ([1]; Well no.=943): 95.6%
remaining activity at 3.75 µM ([1]; Well no.=8212): 90.4%
remaining activity at 1.25 µM ([2]; Well no.=943): 102%
remaining activity at 1.25 µM ([2]; Well no.=8212): 94.6%

COCCc1ccc(OCC(O)CNC(C)C)cc1 (stereo not drawn) [Metoprolol (Succinate)]
remaining activity at 3.75 µM ([1]; Well no.=7475): 95.9%
remaining activity at 1.25 µM ([2]; Well no.=7475): 94.3%

COCCc1ccc(OCC(O)CNC(C)C)cc1 (stereo not drawn) [Metoprolol]
remaining activity at 3.75 µM ([1]; Well no.=1959): 102%
remaining activity at 1.25 µM ([2]; Well no.=1959): 102%

Cc1ccccc1/C=C/C1=NCCN1 [Metrazoline oxalate]
remaining activity at 3.75 µM ([1]; Well no.=1074): 89.7%
remaining activity at 1.25 µM ([2]; Well no.=1074): 88.9%

Cc1ccccc1CNc1ncnc2c1ncn2[C@@H]1O[C@H](CO)[C@@H](O)[C@H]1O [Metrifudil]
remaining activity at 3.75 µM ([1]; Well no.=851): 96.8%
remaining activity at 1.25 µM ([2]; Well no.=851): 95.7%

Cc1ncc([N+](=O)[O-])n1CCO [Metronidazole]
remaining activity at 3.75 µM ([1]; Well no.=1963): 99.9%
remaining activity at 1.25 µM ([2]; Well no.=1963): 99.6%

CC[C@H](C)C(=O)O[C@H]1CCC=C2C=C[C@H](C)[C@H](CC[C@@H]3C[C@@H](O)CC(=O)O3)[C@H]21 [Mevastatin]
remaining activity at 3.75 µM ([1]; Well no.=922): 104%
remaining activity at 3.75 µM ([1]; Well no.=1618): 103%
remaining activity at 3.75 µM ([1]; Well no.=3381): 91.3%
remaining activity at 1.25 µM ([2]; Well no.=922): 105%
remaining activity at 1.25 µM ([2]; Well no.=1618): 102%
remaining activity at 1.25 µM ([2]; Well no.=3381): 90.7%

Cc1cccc(C)c1OCC(C)N (stereo not drawn) [Mexiletene hydrochloride]
remaining activity at 3.75 µM ([1]; Well no.=1066): 99.6%
remaining activity at 1.25 µM ([2]; Well no.=1066): 102%

CC1(C)S[C@@H]2[C@H](NC(=O)[C@H](NC(=O)N3CCN(S(C)(=O)=O)C3=O)c3ccccc3)C(=O)N2[C@H]1C(=O)O [Mezlocillin (sodium)]
remaining activity at 3.75 µM ([1]; Well no.=7790): 102%
remaining activity at 1.25 µM ([2]; Well no.=7790): 99.7%

CN1CCN2c3ccccc3Cc3ccccc3C2C1 (stereo not drawn) [Mianserin (hydrochloride)]
remaining activity at 3.75 µM ([1]; Well no.=7477): 96.9%
remaining activity at 1.25 µM ([2]; Well no.=7477): 105%

CN1CCN2c3ccccc3Cc3ccccc3C2C1 (stereo not drawn) [Mianserin hydrochloride]
remaining activity at 3.75 µM ([1]; Well no.=874): 106%
remaining activity at 1.25 µM ([2]; Well no.=874): 107%

CN1CCN2c3ccccc3Cc3ccccc3C2C1 (stereo not drawn) [Mianserin.HCl]
remaining activity at 3.75 µM ([1]; Well no.=1540): 101%
remaining activity at 1.25 µM ([2]; Well no.=1540): 100%

COCC(=O)O[C@]1(CCN(C)CCCc2nc3ccccc3[nH]2)CCc2cc(F)ccc2[C@@H]1C(C)C [Mibefradil dihydrochloride]
remaining activity at 3.75 µM ([1]; Well no.=882): 91.3%
remaining activity at 1.25 µM ([2]; Well no.=882): 99.7%

Clc1ccc(COC(Cn2ccnc2)c2ccc(Cl)cc2Cl)c(Cl)c1 (stereo not drawn) [Miconazole nitrate]
remaining activity at 3.75 µM ([1]; Well no.=4666): 103%
remaining activity at 1.25 µM ([2]; Well no.=4666): 102%

Clc1ccc(COC(Cn2ccnc2)c2ccc(Cl)cc2Cl)c(Cl)c1 (stereo not drawn) [Miconazole]
remaining activity at 3.75 µM ([1]; Well no.=1965): 92.2%
remaining activity at 1.25 µM ([2]; Well no.=1965): 86.9%

CC#C[C@]1(O)CC[C@H]2[C@@H]3CCC4=CC(=O)CCC4=C3[C@@H](c3ccc(N(C)C)cc3)C[C@@]21C [Mifepristone]
remaining activity at 3.75 µM ([1]; Well no.=795): 96.3%
remaining activity at 3.75 µM ([1]; Well no.=2206): 97.2%
remaining activity at 3.75 µM ([1]; Well no.=6285): 99.7%
remaining activity at 1.25 µM ([2]; Well no.=795): 103%
remaining activity at 1.25 µM ([2]; Well no.=2206): 93.5%
remaining activity at 1.25 µM ([2]; Well no.=6285): 97.9%

OCCN1C[C@H](O)[C@@H](O)[C@H](O)[C@H]1CO [Miglitol]
remaining activity at 3.75 µM ([1]; Well no.=8340): 92.7%
remaining activity at 1.25 µM ([2]; Well no.=8340): 92.9%

CCCCN1C[C@H](O)[C@@H](O)[C@H](O)[C@H]1CO [Miglustat]
remaining activity at 3.75 µM ([1]; Well no.=2252): 95.8%
remaining activity at 1.25 µM ([2]; Well no.=2252): 97.5%

Cc1[nH]c(=O)c(C#N)cc1-c1ccncc1 [Milrinone]
remaining activity at 3.75 µM ([1]; Well no.=832): 101%
remaining activity at 3.75 µM ([1]; Well no.=2150): 97.1%
remaining activity at 1.25 µM ([2]; Well no.=832): 101%
remaining activity at 1.25 µM ([2]; Well no.=2150): 95.5%

CCCCCCCCCCCCCCCCOP(=O)([O-])OCC[N+](C)(C)C [Miltefosine]
remaining activity at 3.75 µM ([1]; Well no.=1767): 100%
remaining activity at 1.25 µM ([2]; Well no.=1767): 101%

CN(C)c1ccc(O)c2c1C[C@H]1C[C@H]3[C@H](N(C)C)C(O)=C(C(N)=O)C(=O)[C@@]3(O)C(O)=C1C2=O [Minocycline hydrochloride]
remaining activity at 3.75 µM ([1]; Well no.=797): 102%
remaining activity at 1.25 µM ([2]; Well no.=797): 104%

CN(C)c1ccc(O)c2c1C[C@H]1C[C@H]3[C@H](N(C)C)C(O)=C(C(N)=O)C(=O)[C@@]3(O)C(O)=C1C2=O [Minocycline]
remaining activity at 3.75 µM ([1]; Well no.=1995): 103%
remaining activity at 1.25 µM ([2]; Well no.=1995): 103%

Nc1cc(N2CCCCC2)nc(N)[n+]1[O-] [Minoxidil]
remaining activity at 3.75 µM ([1]; Well no.=1070): 96.2%
remaining activity at 3.75 µM ([1]; Well no.=1808): 90.5%
remaining activity at 1.25 µM ([2]; Well no.=1070): 93.8%
remaining activity at 1.25 µM ([2]; Well no.=1808): 89.4%

Nc1nc(CC(=O)Nc2ccc(CCNC[C@H](O)c3ccccc3)cc2)cs1 [Mirabegron (YM178)]
remaining activity at 3.75 µM ([1]; Well no.=4652): 97.1%
remaining activity at 1.25 µM ([2]; Well no.=4652): 99.3%

Nc1nc(CC(=O)Nc2ccc(CCNC[C@H](O)c3ccccc3)cc2)cs1 [Mirabegron]
remaining activity at 3.75 µM ([1]; Well no.=6273): 116%
remaining activity at 1.25 µM ([2]; Well no.=6273): 107%
